Measured values from US20260144258A1, “CRYSTAL OF 2-(5-CYCLOPROPYL-3-(ETHYLSULFONYL)PYRIDIN-2-YL)-5-((TRIFLUOROMETHYL)SULFONYL)BENZO[D]OXAZOLE” (SUMITOMO CHEMICAL COMPANY, LIMITED, priority 2022, published 2026).

Tests used:
Assay type in all cases: in vivo
[1] = test system: Argentine ant (Linepithema humile); assay: Test method 7: treated filter paper with sugar water, Argentine ant workers; conditions: 12.5 ppm, 0.7 ml on filter paper, after 6 days, 25° C.
Protocol: (§1) Next, an efficacy of the Type 1 crystal of Compound (1) on controlling harmful arthropods is shown by Test examples. The following tests were conducted at 25° C.
(§2) Test compound is made to a formulation according to a similar method to that described in the Formulation example 1, and thereto is added 1.8 g of sucrose, followed by adding 3% sugar water to prepare a dilution containing a prescribed concentration of the test compound.
(§3) A filter paper having a diameter of 5.5 cm is spread on the bottom of the cup, and then 0.7 ml of the dilutons are added dropwise to the filter paper, and ten (10) Argentine ant (Linepithema humile) workers are released into the cup, and the cup is covered with the lid. After 6 days, the number of the dead and distressed individuals of Argentine ant workers are counted, and the ratio of distressed and dead insects (%) is calculated by the following equation.
(§4) Here the dead individual is one whose behavior has completely stopped, and a distressed individual is one that cannot stand up when placed on its back and also cannot walk.

[2] = test system: common house mosquitos (Culex pipiens pallens); assay: Test method 4: mosquito larvae released into dilution; conditions: 24 h, last instar larvae in dilution, after 1 day, 25° C., read-out: mortality of insects
Protocol: as §1
Test compound is made to a formulation according to a similar method to that described in the Formulation example 1, and thereto is added water to prepare a dilution containing a prescribed concentration of the test compound.
Into the dilution, 30 common house mosquitos (Culex pipiens pallens) at the last instar larval stage are released, and after 1 day, the state of the common house mosquito larvae is examined, and the mortality of insects is calculated by the following equation.
Mortality (%)=(Number of dead insects/Number of tested insects)×100

[3] = test system: diamondback moths (Plutella xylostella); assay: Test method 3: sprayed cabbage leaf, diamondback moth larvae; conditions: 120 h, spray 20 mL/seedling on cabbage, second instar larvae, after 5 days, 25° C., read-out: mortality of insects
Protocol: as §1
(§5) Test compound is made to a formulation according to a similar method to that described in the Formulation example 1, and thereto is added water containing 0.03 v/v % of Shindain (registered trademark) to prepare a dilution containing a prescribed concentration of the test compound.
(§6) Cabbage (Brassicae oleracea) seedling (on the developmental stage of the second to third true leaf) is planted in a cup, and the dilutions are sprayed onto the seedling at a ratio of 20 mL/seedling. Thereafter, the stem and leaf thereof are cut out and then are placed into a cup that is lined with a filter paper. Five (5) diamondback moths (Plutella xylostella) at the second instar larval stage are released into the cup. After 5 days, the number of the surviving insects is counted, and the mortality of insects is calculated by the following equation.

[4] = test system: cotton aphids (Aphis gossypii); assay: Test method 6: sprayed cucumber seedling with artificial rainfall, cotton aphids; conditions: 1 ppm, spray 10 mL/seedling on cucumber, artificial rainfall 10 mm/hr for 1 hour, female adults released after one day, after 5 days, 25° C.
Protocol: Next, an efficacy of the Type 1 crystal of Compound (1) on controlling harmful arthropods is shown by Test examples. The following tests were conducted at 25° C. Test compound is made to a formulation according to a similar method to that described in the Formulation example 1, and thereto is added water containing 0.02 v/v % of Shindain (registered trademark) to prepare a dilution containing a prescribed concentration of the test compound. Only the second true leaves of Cucumber (Cucumis sativus) seedling (on the developmental stage of the third true leaf) are retained, and the other leaves are cut off, and the dilutions are sprayed onto the seedling at a ratio of 10 mL/seedling. After the dilution, which is treated, is dried, rain is given to the cucumber seedling with an artificial rainfall device at 10 mm/hr for 1 hour. After one day, 10 cotton aphids (Aphis gossypii) female adults are released onto the seedling. After 5 days, the number of the surviving insects is examined and the controlling value is calculated by the following equation. […]

[5] = test system: German cockroach (Blattella germanica); assay: Test method 8: treated filter paper with sugar water, German cockroach male adults; conditions: 0.8 ppm, 0.7 ml on filter paper, after 5 days, 25° C.
Protocol: as §1, §2
as §3, with “dilutions” for “dilutons”, “five (5) German cockroach (Blattella germanica) male adults” for “ten (10) Argentine ant (Linepithema humile) workers”, “5” for “6”, “German cockroach male adults” for “Argentine ant workers”
as §4

[6] = test system: brown planthoppers (Nilaparvata lugens); assay: Test method 5: sprayed rice seedling, brown planthopper larvae; conditions: 144 h, spray 10 mL/seedling on rice, third instar larvae, after 6 days, 25° C., read-out: mortality of insects
Protocol: as §1, §5
Rice (Oryza sativa) seedling (on the developmental stage of the second leaf) is planted in a cup, and the dilutions are sprayed onto the seedling at a ratio of 10 mL/seedling. Thereafter, twenty (20) brown planthoppers (Nilaparvata lugens) at the third instar larval stage are released into the cup. After 6 days, the number of the surviving insects is counted, and the mortality of insects is calculated by the following equation.
Mortality (%)=(1−Number of surviving insects/20)×100

[7] = test system: common cutworms (Spodoptera litura); assay: Test method 2: sprayed cabbage leaf, common cutworm larvae; conditions: 120 h, spray 20 mL/seedling on cabbage, second instar larvae, after 5 days, 25° C., read-out: mortality of insects
Protocol: as §1, §5
as §6, with “with” for “with a”, “commom cutworms (Spodoptera litura)” for “diamondback moths (Plutella xylostella)”
Mortality (%)=(1−Number of surviving insects/5)×100

[8] = test system: cotton aphids (Aphis gossypii); assay: Test method 1: foliar spray on cucumber seedling infested with cotton aphids; conditions: 500 ppm, spray 10 mL/seedling on cucumber, cotton aphids all stages, after 5 days, 25° C.
Protocol: Next, an efficacy of the Type 1 crystal of Compound (1) on controlling harmful arthropods is shown by Test examples. The following tests were conducted at 25° C. Test compound is made to a formulation according to a similar method to that described in the Formulation example 1, and thereto is added water containing 0.03 v/v % of Shindain (registered trademark) to prepare a dilution containing a prescribed concentration of the test compound. Cucumber (Cucumis sativus) seedling (on the developmental stage of the second true leaf) is planted in a cup, and approximately 30 cotton aphids (Aphis gossypii) (all stages of life) are released onto the seedling. After one day, the dilutions are sprayed onto the seedling at a ratio of 10 mL/seedling. After 5 days, the number of the surviving insects is examined, and the controlling value is calculated by the following equation. […]

Structure (SMILES)	ratio of distressed and dead insects [1]	mortality at 3.5 ppm [2]	mortality at 500 ppm [3]	controlling value [4]	ratio of distressed and dead insects [5]	mortality at 500 ppm [6]	mortality at 500 ppm [7]	controlling value [8]
CCS(=O)(=O)c1cc(C2CC2)cnc1-c1nc2cc(S(=O)(=O)C(F)(F)F)ccc2o1 [Type 1 crystal of Compound (1), 2-(5-cyclopropyl-3-(ethylsulfonyl)pyridin-2-yl)-5-((trifluoromethyl)sulfonyl)benzo[d]oxazole]	100%	≥ 90%	≥ 80%	40.5%	100%	≥ 90%	≥ 80%	≥ 90%
CCS(=O)(=O)c1cc(C2CC2)cnc1-c1nc2cc(S(=O)(=O)C(F)(F)F)ccc2o1 [amorphous of Compound (1), 2-(5-cyclopropyl-3-(ethylsulfonyl)pyridin-2-yl)-5-((trifluoromethyl)sulfonyl)benzo[d]oxazole]	35%	–	–	–	30%	–	–	–
